Measurements: ChEMBL document CHEMBL1153282, “N-substituted 2'-(aminoaryl)benzothiazoles as kinase inhibitors: hit identification and scaffold hopping” (Bioorg Med Chem Lett, 2009)

Tests used:
[1] = molecular target: Insulin receptor (Homo sapiens, UniProt P06213); assay: Inhibition of insulin receptor by virtual HTS assay
[2] = molecular target: Aurora kinase B (Homo sapiens, UniProt Q96GD4); assay: Inhibition of Aurora B by virtual HTS assay
[3] = molecular target: Angiopoietin-1 receptor (Homo sapiens, UniProt Q02763); assay: Inhibition of TIE2 by virtual HTS assay
[4] = molecular target: T1, Aurora kinase A (Homo sapiens, UniProt O14965); assay: Inhibition of Aurora A by virtual HTS assay
T1 sequence (O14965 whole entry): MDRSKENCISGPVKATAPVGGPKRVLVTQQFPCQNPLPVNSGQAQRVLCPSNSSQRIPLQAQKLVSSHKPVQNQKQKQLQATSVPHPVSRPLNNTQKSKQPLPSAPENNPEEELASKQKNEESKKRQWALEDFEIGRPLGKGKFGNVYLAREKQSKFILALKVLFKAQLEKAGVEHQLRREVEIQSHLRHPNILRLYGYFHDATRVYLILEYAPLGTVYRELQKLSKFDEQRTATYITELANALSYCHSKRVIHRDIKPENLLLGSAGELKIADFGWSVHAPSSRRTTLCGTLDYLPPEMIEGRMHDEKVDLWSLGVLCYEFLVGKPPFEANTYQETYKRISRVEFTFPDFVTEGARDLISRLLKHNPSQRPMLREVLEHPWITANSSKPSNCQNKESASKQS

[5] = molecular target: T2, Ephrin type-B receptor 4 (Homo sapiens, UniProt P54760); assay: Inhibition of EphB4 by virtual HTS assay
T2 sequence (P54760 whole entry): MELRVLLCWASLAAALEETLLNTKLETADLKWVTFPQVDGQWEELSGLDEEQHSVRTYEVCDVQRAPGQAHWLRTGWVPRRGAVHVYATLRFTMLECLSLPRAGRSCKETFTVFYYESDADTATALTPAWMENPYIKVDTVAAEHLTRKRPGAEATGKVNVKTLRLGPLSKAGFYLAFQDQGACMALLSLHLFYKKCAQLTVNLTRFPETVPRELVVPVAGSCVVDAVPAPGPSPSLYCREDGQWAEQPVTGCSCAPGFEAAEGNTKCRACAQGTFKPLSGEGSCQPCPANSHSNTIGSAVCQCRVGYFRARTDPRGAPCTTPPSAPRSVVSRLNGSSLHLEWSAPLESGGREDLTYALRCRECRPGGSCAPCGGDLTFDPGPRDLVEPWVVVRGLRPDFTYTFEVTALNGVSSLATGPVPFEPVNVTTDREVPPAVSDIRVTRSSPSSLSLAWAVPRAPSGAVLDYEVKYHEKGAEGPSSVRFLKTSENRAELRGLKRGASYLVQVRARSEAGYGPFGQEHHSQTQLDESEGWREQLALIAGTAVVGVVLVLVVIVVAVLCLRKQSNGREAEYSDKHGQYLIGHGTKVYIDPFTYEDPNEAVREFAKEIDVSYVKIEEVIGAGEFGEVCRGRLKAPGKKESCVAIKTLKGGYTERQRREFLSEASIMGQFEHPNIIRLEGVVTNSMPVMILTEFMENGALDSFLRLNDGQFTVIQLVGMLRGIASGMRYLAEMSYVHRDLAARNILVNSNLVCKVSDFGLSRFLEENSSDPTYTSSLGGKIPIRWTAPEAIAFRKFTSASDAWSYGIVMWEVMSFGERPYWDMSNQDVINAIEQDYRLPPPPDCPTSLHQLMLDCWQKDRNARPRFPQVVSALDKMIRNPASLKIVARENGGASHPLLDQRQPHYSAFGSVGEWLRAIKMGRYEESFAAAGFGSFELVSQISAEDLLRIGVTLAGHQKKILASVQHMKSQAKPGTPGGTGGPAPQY

[6] = molecular target: Platelet-derived growth factor receptor beta (Homo sapiens, UniProt P09619); assay: Inhibition of PDGFRbeta by virtual HTS assay
[7] = molecular target: Vascular endothelial growth factor receptor 2 (Homo sapiens, UniProt P35968); assay: Inhibition of VEGFR2 by virtual HTS assay
[8] = molecular target: Vascular endothelial growth factor receptor 3 (Homo sapiens, UniProt P35916)
Description: Inhibition of VEGFR3 by virtual HTS assay

[9] = molecular target: Insulin-like growth factor 1 receptor (Homo sapiens, UniProt P08069); assay: Inhibition of IGF1R by virtual HTS assay
[10] = molecular target: Focal adhesion kinase 1 (Homo sapiens, UniProt Q05397); assay: Inhibition of FAK by virtual HTS assay
[11] = molecular target: Proto-oncogene tyrosine-protein kinase Src (Homo sapiens, UniProt P12931); assay: Inhibition of Src by virtual HTS assay
[12] = molecular target: Epidermal growth factor receptor (Homo sapiens, UniProt P00533); assay: Inhibition of EGFR by virtual HTS assay
[13] = molecular target: Cyclin-dependent kinase 2 (Homo sapiens, UniProt P24941); assay: Inhibition of CDK2 by virtual HTS assay
[14] = molecular target: Cyclin-dependent kinase 4 (Homo sapiens, UniProt P11802); assay: Inhibition of CDK4 by virtual HTS assay

Sequence of Vascular endothelial growth factor receptor 2 (P35968 whole entry): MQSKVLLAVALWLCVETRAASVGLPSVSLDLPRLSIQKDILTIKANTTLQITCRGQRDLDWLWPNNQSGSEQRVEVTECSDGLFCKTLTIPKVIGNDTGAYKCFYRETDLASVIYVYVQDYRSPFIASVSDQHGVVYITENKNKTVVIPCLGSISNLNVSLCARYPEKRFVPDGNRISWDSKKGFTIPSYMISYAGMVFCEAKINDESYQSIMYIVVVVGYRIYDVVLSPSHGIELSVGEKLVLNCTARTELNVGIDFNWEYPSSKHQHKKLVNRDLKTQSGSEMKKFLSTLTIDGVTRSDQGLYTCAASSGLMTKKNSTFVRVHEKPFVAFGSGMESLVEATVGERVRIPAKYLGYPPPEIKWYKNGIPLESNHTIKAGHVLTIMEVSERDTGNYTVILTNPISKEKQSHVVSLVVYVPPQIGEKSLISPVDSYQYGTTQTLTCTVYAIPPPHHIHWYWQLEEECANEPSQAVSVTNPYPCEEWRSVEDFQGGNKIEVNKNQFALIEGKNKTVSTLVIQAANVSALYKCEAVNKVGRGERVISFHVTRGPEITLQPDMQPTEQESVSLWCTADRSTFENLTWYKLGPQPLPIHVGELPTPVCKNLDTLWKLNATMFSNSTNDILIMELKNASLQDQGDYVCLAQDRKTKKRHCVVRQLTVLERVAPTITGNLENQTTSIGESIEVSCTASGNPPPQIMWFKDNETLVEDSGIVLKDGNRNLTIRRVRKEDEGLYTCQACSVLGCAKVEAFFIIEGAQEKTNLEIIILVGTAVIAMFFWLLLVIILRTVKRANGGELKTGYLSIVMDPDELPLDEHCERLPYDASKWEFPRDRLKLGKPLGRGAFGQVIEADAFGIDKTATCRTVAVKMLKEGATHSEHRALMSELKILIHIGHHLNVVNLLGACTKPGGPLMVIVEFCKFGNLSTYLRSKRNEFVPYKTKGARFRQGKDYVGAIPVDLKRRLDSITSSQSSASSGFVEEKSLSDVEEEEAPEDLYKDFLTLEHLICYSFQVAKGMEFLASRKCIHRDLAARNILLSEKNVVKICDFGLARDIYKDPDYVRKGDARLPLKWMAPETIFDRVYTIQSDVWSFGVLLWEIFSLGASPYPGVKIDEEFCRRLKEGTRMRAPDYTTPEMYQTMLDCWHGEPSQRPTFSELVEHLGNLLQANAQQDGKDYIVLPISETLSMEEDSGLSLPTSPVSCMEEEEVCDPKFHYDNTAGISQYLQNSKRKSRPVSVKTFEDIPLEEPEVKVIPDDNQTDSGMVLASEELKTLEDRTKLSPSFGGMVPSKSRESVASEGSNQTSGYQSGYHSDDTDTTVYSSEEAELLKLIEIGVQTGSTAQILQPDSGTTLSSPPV
Sequence of Platelet-derived growth factor receptor beta (P09619 whole entry): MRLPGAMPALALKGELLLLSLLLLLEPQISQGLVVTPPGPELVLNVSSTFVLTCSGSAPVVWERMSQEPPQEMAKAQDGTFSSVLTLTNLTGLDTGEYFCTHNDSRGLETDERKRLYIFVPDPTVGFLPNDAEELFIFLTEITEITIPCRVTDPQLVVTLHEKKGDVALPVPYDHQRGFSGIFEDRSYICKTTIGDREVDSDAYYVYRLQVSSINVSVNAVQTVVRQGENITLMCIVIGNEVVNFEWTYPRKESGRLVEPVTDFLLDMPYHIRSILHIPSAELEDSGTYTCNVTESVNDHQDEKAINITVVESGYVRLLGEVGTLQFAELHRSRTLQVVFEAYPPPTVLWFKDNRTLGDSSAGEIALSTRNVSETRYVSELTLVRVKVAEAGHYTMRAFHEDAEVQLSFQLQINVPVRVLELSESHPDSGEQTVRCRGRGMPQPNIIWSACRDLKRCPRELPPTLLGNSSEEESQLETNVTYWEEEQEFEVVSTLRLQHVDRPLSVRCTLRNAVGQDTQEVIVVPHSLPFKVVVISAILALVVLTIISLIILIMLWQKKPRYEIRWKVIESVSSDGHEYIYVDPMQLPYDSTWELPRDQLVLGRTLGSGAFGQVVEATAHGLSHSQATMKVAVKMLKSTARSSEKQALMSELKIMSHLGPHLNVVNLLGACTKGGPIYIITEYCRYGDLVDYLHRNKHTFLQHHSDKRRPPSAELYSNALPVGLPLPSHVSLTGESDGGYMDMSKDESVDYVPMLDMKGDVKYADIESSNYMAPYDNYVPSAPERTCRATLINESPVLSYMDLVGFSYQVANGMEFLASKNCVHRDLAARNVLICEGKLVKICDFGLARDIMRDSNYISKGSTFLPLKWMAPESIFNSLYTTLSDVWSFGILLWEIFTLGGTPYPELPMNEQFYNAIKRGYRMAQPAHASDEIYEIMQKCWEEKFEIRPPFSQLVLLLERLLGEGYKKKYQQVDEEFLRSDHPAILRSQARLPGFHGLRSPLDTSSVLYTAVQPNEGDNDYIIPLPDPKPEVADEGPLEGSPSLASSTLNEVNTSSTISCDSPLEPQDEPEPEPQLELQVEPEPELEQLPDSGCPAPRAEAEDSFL
Sequence of Insulin-like growth factor 1 receptor (P08069 31-736 limits assumed): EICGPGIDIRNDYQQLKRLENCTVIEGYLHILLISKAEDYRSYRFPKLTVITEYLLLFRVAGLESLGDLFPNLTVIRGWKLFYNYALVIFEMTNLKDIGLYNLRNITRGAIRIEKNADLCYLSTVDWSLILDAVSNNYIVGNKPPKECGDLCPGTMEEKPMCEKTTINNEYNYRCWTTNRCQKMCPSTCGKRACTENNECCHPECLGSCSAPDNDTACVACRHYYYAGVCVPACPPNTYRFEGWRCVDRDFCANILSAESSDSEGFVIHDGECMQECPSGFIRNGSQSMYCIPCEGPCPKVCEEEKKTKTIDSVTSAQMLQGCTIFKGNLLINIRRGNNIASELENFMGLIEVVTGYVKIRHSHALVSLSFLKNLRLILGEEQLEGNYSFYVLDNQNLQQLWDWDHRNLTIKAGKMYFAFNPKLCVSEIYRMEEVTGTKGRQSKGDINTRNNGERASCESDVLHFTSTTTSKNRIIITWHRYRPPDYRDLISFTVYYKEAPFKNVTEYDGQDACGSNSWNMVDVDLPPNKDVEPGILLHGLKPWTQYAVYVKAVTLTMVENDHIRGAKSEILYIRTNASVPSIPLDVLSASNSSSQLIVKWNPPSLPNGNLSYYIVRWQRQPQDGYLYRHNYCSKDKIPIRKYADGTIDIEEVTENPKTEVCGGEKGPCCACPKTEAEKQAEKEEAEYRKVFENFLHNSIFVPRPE
Sequence of Insulin-like growth factor 1 receptor (P08069 741-1367 limits assumed): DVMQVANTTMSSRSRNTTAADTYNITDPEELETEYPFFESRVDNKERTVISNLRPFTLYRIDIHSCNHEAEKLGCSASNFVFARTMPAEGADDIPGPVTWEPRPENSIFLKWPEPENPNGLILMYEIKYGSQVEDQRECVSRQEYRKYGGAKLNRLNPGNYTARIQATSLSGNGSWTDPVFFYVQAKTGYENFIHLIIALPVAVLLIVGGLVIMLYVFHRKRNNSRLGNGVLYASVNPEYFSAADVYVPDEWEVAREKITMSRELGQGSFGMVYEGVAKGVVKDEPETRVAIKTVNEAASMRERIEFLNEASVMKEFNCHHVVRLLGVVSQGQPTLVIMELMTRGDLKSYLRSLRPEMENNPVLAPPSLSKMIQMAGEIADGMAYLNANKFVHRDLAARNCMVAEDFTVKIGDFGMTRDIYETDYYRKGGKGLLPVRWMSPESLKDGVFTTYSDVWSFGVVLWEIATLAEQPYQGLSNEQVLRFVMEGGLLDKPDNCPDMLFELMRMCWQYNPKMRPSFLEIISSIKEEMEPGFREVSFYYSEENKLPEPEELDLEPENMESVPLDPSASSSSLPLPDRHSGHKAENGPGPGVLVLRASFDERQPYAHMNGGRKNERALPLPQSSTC
Sequence of Epidermal growth factor receptor (P00533 whole entry): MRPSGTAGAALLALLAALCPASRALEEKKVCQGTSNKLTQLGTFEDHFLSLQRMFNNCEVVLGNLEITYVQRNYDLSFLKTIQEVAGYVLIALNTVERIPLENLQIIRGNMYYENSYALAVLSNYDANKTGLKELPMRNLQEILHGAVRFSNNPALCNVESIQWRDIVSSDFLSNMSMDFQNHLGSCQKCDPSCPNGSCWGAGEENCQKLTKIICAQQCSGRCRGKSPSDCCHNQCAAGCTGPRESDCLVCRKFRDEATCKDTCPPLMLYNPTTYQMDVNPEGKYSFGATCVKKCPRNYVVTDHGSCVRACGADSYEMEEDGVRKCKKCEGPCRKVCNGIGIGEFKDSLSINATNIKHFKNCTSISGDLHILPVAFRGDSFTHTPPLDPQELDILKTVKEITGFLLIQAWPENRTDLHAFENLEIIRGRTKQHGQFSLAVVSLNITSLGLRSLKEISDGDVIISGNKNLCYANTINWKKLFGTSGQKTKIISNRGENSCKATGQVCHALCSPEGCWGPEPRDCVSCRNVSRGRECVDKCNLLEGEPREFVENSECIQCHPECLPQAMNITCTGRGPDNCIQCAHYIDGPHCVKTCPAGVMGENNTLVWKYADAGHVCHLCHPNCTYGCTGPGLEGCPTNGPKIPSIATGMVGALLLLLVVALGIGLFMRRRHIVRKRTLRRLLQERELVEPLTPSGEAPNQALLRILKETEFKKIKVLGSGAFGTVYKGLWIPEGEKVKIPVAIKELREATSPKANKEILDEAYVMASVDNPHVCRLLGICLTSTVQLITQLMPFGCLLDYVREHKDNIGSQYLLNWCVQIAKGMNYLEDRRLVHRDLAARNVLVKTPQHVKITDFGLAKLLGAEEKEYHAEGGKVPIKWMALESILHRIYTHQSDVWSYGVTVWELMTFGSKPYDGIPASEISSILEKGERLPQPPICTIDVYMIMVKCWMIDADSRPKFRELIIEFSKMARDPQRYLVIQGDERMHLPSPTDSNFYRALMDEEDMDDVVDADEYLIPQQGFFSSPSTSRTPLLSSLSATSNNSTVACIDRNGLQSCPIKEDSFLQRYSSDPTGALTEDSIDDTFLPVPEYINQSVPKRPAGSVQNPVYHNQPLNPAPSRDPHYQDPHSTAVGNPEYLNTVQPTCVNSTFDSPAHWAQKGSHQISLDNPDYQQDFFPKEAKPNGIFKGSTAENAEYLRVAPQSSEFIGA

| IC50 [1] | IC50 [2] | IC50 [3] | IC50 [4] | IC50 [5] | IC50 [6] | IC50 [7] | IC50 [8] | IC50 [9] | IC50 [11] | IC50 [12] | IC50 [14] | Structure (SMILES) | IC50 [10] | IC50 [13] |
| --- | --- | --- | --- | --- | --- | --- | --- | --- | --- | --- | --- | --- | --- | --- |
| 2600 nM | 7400 nM | 8300 nM | 6500 nM | 480 nM | 3000 nM | 510 nM | 2400 nM | – | – | – | – | COc1cc2ncnc(Nc3ccc(F)c(Cl)c3)c2cc1OC | – | – |
| > 10000 nM | > 10000 nM | > 10000 nM | 2700 nM | > 10000 nM | – | 1000 nM | – | 3300 nM | 300 nM | > 10000 nM | – | Cc1cc2c(Nc3ccc(-c4nc5ccccc5s4)cc3)ncnc2cc1Cl | – | – |
| > 10000 nM | 510 nM | 1000 nM | > 10000 nM | 1000 nM | – | 800 nM | – | 1100 nM | 700 nM | > 10000 nM | – | Fc1cc(-c2nc3ccccc3s2)ccc1Nc1ncnc2cc(Cl)ccc12 | – | – |
| 2150 nM | > 10000 nM | > 10000 nM | 6000 nM | 3300 nM | – | > 10000 nM | – | 1650 nM | 3000 nM | > 10000 nM | – | COc1cc2nc(Nc3cc(C)n[nH]3)nc(Nc3ccc(-c4nc5ccccc5s4)cc3)c2cc1OC | – | – |
| 2700 nM | 750 nM | 7000 nM | 5700 nM | 1400 nM | – | 640 nM | – | 860 nM | 630 nM | 5300 nM | – | Clc1ccc2c(Nc3ccc(-c4nc5ccccc5s4)cc3)ccnc2c1 | – | – |
| 7900 nM | 920 nM | – | 5300 nM | – | – | – | – | 7500 nM | – | 1600 nM | 6600 nM | COc1cc2ncnc(Nc3ccc(N4Cc5ccccc5C4)cc3)c2cc1OC | – | – |
| 1600 nM | 2000 nM | > 10000 nM | 160 nM | > 10000 nM | > 10000 nM | 7500 nM | 2500 nM | 100 nM | 190 nM | 1900 nM | – | Cc1cc(Nc2ccnc(Nc3cccc(-c4nc5ccccc5s4)c3)n2)n[nH]1 | – | – |

| Structure (SMILES) | IC50 [1] | IC50 [2] | IC50 [3] | IC50 [4] | IC50 [5] | IC50 [6] | IC50 [7] | IC50 [8] | IC50 [9] | IC50 [11] | IC50 [12] | IC50 [14] | IC50 [10] | IC50 [13] |
| --- | --- | --- | --- | --- | --- | --- | --- | --- | --- | --- | --- | --- | --- | --- |
| O=C(NC(=S)Nc1ccc(O)c(-c2nc3ccccc3s2)c1)c1ccc([N+](=O)[O-])cc1 | – | – | 3000 nM | – | 610 nM | 1000 nM | 3000 nM | 1000 nM | 310 nM | 190 nM | 280 nM | – | 900 nM | 700 nM |
